Results: patent US8558002B2, “Sulfoximines as kinase inhibitors” (Allergan, Inc., priority 2006, dated 2013)
pIC50: −log10 of the molar value.

Columns and labels:
PDGFRβ = target: T1, PDGFRβ (Homo sapiens, UniProt P09619); test: PDGFRβ Kinase Assay (poly-Glu-Tyr ELISA); type: biochemical; conditions: purified cytoplasmic domain PDGFR-b protein, 36 μM ATP
T1 construct: 200-300 ng purified cytoplasmic domain PDGFR-b protein (Millipore); purchased Millipore
Protocol: Biochemical PDGFRβ kinase assays were performed in 96 well microtiter plates that were coated overnight with 75 μg of poly-Glu-Tyr (4:1) in 10 mM Phosphate Buffered Saline (PBS), pH 7.4. The coated plates were washed with 2 mls per well PBS+0.05% Tween-20 (PBS-T), blocked by incubation with PBS containing 1% BSA, then washed with 2 mls per well PBS-T prior to starting the reaction. Reactions were carried out in 100 μL reaction volumes containing 36 μM ATP in kinase buffer (50 mM Hepes buffer pH 7.4, 20 mM MgCl2, 0.1 mM MnCl2 and 0.2 mM Na3VO4). Test compounds were reconstituted in 100% DMSO and added to the reaction to give a final DMSO concentration of 5%. Reactions were initiated by the addition 20 ul per well of kinase buffer containing 200-300 ng purified cytoplasmic domain PDGFR-b protein (Millipore). Following a 60 minute incubation at 30° C., the reactions were washed 2 mls per well PBS-T. […] of a monoclonal anti-phosphotyrosine antibody-peroxidase conjugate diluted 1:10,000 in PBS-T was added to the wells for 30 minutes. Following a 2 mls per well wash with PBS-Tween-20, 100 μl of O-Phenylenediamine Dihydrochloride in phosphate-citrate buffer, containing urea hydrogen peroxide, was added to the wells for 7-10 minutes as a colorimetric substrate for the peroxidase. The reaction was terminated by the addition of 100 μl of 2.5N H2SO4 to each well and read using a microplate ELISA reader set at 492 nm. IC50 values for compound inhibition were calculated directly from graphs of optical density (arbitrary units) versus compound concentration following subtraction of blank values.

VEGFR2 [1] = target: T2, VEGFR2 (Homo sapiens, UniProt P35968); test: VEGFR2 Kinase Assay (biochemical KDR kinase, poly-Glu-Tyr ELISA); parameters: 200-300 ng purified cytoplasmic domain KDR protein; purchased BPS Bioscience; conditions: purified cytoplasmic domain KDR protein, 2.7 μM ATP
Protocol: Biochemical KDR kinase assays were performed in 96 well microtiter plates that were coated overnight with 75 μg/well of poly-Glu-Tyr (4:1) in 10 mM Phosphate Buffered Saline (PBS), pH 7.4. The coated plates were washed with 2 mls per well PBS+0.05% Tween-20 (PBS-T), blocked by incubation with PBS containing 1% BSA, then washed with 2 mls per well PBS-T prior to starting the reaction. Reactions were carried out in […] reaction volumes containing 2.7 μM ATP in kinase buffer (50 mM Hepes buffer pH 7.4, 20 mM MgCl2, 0.1 mM MnCl2 and 0.2 mM Na3VO4). Test compounds were reconstituted in 100% DMSO and added to the reaction to give a final DMSO concentration of 5%. Reactions were initiated by the addition 20 ul per well of kinase buffer containing 200-300 ng purified cytoplasmic domain KDR protein (BPS Bioscience, San Diego, Calif.). Following a 15 minute incubation at 30° C., the reactions were washed 2 mls per well PBS-T. 100 μl of a monoclonal anti-phosphotyrosine antibody-peroxidase conjugate diluted 1:10,000 in PBS-T was added to the wells for 30 minutes. Following a 2 mls per well wash with PBS-Tween-20, 100 μl of O-Phenylenediamine Dihydrochloride in phosphate-citrate buffer, containing urea hydrogen peroxide, was added to the wells for 7-10 minutes as a colorimetric substrate for the peroxidase. The reaction was terminated by the addition of 100 μl of 2.5NH2SO4 to each well and read using a microplate ELISA reader set at 492 nm. IC50 values for compound inhibition were calculated directly from graphs of optical density (arbitrary units) versus compound concentration following subtraction of blank values.
Target sequence in this assay (P35968 786-1356 limits assumed): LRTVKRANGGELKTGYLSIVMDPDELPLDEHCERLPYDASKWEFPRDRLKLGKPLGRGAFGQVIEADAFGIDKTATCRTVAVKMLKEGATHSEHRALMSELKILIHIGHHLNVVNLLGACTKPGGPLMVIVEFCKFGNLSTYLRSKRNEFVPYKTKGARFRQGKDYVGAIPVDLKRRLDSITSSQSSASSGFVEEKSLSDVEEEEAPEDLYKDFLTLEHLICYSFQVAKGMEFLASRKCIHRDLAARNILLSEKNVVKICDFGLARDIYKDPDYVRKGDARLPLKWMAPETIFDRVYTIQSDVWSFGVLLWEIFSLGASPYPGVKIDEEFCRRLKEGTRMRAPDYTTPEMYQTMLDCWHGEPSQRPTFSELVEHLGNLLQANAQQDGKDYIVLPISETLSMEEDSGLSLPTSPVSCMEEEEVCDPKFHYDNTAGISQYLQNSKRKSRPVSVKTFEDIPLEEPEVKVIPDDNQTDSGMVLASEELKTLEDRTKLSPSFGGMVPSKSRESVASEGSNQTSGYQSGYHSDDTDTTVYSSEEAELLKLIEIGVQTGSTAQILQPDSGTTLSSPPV

VEGFR1 = VEGFR1 (Homo sapiens, UniProt P17948); test: VEGFR1 Kinase; type: biochemical
Chain of VEGFR1 (P17948 27-1338, species assumed): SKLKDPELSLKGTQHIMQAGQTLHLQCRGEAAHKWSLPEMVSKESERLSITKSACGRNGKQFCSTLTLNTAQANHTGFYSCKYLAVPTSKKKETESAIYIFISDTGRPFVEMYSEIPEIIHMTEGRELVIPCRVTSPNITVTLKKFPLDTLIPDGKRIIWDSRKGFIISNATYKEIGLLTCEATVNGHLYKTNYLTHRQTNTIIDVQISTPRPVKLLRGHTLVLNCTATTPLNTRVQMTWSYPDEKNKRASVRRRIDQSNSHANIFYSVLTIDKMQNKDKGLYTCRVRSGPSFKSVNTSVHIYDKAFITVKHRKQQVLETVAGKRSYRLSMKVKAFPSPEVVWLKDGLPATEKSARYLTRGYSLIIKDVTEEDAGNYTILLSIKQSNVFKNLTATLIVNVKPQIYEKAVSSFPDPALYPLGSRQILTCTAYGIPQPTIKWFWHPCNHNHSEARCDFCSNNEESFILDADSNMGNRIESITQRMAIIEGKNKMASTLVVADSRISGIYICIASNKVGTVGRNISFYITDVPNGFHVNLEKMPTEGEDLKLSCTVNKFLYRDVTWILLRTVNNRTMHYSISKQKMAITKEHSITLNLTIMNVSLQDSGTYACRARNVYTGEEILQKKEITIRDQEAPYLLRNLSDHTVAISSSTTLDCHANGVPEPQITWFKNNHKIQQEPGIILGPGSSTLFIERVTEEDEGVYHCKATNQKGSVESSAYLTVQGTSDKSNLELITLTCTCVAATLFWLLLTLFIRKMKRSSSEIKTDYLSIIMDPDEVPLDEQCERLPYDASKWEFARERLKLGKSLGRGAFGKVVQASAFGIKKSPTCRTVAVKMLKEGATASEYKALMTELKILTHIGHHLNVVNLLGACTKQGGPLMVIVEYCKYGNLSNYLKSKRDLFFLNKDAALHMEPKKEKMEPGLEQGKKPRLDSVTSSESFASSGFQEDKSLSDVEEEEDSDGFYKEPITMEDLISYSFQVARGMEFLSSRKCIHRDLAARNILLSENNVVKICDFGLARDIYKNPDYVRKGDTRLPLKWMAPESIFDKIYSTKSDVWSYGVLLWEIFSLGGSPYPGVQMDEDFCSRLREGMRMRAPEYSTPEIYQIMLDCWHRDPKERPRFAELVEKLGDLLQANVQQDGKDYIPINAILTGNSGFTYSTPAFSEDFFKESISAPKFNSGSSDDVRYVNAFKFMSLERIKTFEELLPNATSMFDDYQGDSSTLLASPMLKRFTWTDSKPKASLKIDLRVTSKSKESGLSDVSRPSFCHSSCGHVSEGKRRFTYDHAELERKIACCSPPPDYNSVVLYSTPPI

VEGFR2 [2] = target: T2, VEGFR2; test: VEGFR2 Cellular Assay (FLIPR, VEGF induced increases in intracellular calcium in HUVEC); type: cell-based; parameters: host or cells: HUVEC; conditions: VEGF165 stimulation (10 ng/mL), Fluo-4
Protocol: Automated FLIPR (Fluorometric Imaging Plate Reader) technology was used to screen for inhibitors of VEGF induced increases in intracellular calcium levels in fluorescent dye loaded endothelial cells. HUVEC (human umbilical vein endothelial cells) (Clonetics) were seeded in 384-well fibronectin coated black-walled plates overnight @ 37° C./5% CO2. Cells were loaded with calcium indicator Fluo-4 for 45 minutes at 37° C. Cells were washed 2 times (El×405, Biotek Instruments) to remove extracellular dye. For screening, cells were pre-incubated with test agents for 30 minutes, at a single concentration (10 uM) or at concentrations ranging from 0.0001 to 10.0 uM followed by VEGF165 stimulation (10 ng/mL). Changes in fluorescence at 516 nm were measured simultaneously in all 384 wells using a cooled CCD camera. Data were generated by determining max-min fluorescence levels for unstimulated, stimulated, and drug treated samples. IC50 values for test compounds were calculated from % inhibition of VEGF stimulated responses in the absence of inhibitor.
Target sequence in this assay (P35968 20-1356): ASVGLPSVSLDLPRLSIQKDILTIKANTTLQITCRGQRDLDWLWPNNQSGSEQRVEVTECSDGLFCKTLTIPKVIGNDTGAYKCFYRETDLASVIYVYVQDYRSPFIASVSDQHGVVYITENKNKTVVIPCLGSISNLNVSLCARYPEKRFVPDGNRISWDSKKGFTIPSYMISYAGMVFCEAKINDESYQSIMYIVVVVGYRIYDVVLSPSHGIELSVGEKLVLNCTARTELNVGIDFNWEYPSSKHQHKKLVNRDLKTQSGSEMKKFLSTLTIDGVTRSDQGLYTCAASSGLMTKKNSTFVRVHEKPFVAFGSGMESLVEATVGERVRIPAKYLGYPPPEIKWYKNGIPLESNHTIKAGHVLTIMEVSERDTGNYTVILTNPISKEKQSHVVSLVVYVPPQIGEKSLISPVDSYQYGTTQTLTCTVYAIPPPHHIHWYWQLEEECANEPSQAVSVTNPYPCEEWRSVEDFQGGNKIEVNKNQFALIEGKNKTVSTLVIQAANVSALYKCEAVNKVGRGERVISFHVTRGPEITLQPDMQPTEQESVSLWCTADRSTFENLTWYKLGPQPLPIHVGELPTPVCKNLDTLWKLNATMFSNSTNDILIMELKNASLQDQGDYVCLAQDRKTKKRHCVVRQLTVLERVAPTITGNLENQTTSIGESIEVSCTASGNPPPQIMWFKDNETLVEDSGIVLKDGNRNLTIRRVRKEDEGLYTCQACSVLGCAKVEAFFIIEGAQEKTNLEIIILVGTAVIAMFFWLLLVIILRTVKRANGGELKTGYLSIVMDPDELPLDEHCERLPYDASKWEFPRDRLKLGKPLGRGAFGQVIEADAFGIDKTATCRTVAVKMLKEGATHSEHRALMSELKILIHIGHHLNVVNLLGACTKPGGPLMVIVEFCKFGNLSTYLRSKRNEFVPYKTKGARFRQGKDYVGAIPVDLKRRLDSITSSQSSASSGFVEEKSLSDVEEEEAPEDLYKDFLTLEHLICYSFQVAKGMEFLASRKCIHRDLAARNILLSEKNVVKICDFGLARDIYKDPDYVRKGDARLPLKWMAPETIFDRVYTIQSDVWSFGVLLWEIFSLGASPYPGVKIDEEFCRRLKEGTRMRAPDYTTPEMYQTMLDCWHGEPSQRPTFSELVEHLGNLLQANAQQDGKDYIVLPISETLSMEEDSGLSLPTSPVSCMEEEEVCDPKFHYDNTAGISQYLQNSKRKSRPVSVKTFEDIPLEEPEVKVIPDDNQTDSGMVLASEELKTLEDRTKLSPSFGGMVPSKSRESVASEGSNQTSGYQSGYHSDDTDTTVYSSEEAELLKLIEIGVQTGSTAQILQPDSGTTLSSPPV

T1 sequence (P09619 554-1106 limits assumed): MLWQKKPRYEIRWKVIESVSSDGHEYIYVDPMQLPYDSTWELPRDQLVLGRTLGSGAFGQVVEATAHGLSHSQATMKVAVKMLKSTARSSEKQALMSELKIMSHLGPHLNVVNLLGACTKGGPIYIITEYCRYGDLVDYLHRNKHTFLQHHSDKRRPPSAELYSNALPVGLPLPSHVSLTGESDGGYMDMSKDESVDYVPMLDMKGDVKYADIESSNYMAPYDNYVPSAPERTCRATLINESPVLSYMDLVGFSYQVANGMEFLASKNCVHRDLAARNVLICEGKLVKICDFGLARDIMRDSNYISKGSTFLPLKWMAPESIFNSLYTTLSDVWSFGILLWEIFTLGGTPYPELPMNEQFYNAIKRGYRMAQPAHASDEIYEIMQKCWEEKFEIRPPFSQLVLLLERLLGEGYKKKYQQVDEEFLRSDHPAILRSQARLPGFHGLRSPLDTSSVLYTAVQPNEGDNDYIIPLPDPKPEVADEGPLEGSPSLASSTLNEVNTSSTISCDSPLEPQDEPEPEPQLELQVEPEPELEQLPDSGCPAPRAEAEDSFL

| Structure (SMILES) | pIC50 (PDGFRβ) | pIC50 (VEGFR2 [1]) | pIC50 (VEGFR1) | pIC50 (VEGFR2 [2]) |
| --- | --- | --- | --- | --- |
| COC(=O)CCCCS(=O)(CCCCC(=O)OC)=NC(=O)c1cnc(N)c(C#Cc2ccc(NC(=O)Nc3cc(C)ccc3F)cc2)c1 [Example 19, Dimethyl 5,5′-{N-[(6-amino-5-{[4-({[(2-fluoro-5-methylphenyl)amino]carbonyl}amino)phenyl]ethynyl}pyridin-3-yl)carbonyl]sulfonimidoyl}dipentanoate] | 7.70 | 7.89 | 7.64 | 8.30 |
| COC(=O)CCCCS(=O)(CCCCC(=O)OC)=NC(=O)c1cnc(N)c(C#Cc2cccc(NC(=O)c3occc3C)c2)c1 [Example 2, Dimethyl 5,5′-(N-{[6-amino-5-({3-[(3-methyl-2-furoyl)amino]phenyl}ethynyl)pyridin-3-yl]carbonyl}sulfonimidoyl)dipentanoate] | 6.75 | 8.52 | 8.00 | 8.52 |
